In patent US10532085B2, “Methods for increasing intracellular activity of Hsp70” (Orphazyme A/S, priority 2010, dated 2020):

Columns and labels:
NPC−/− mice [1] = test: NPC1 in vivo pilot study: brain sphingosine (HPLC)
Experimental: (§1) Eight treated (rHSP70) NPC^−/− versus eight control (PBS only) NPC^−/− controls. Mice were treated IP three times per week with either 10 mg/kg of rHSP70 or vehicle alone (PBS) from 3 weeks of age. Three control and three treated mice were sacrificed at 7 or 9 weeks old (i.e. after 4 or 6 weeks of treatment, respectively). Organs were perfused (PBS), weighed and frozen for biochemical and immunohistochemical analysis.
(§2) Organs were homogenised without any added buffer and frozen as 10 ul aliquots. Fresh aliquots were reconstituted to 100 ul with PBS prior to biochemical analysis. Protein determination for each aliquot was performed by BCA protein assay. Cholesterol assays were performed using the Amplex Red Cholesterol Assay from Invitrogen^i. Sphingosine was isolated by sphingoid base extraction and analysed by HPLC^i. GSLs were extracted and analysed by fluorescent HPLC^i. All results were standardised for protein content.

[2] = system: primary fibroblasts from Mucopolysaccharidosis type IIIA patients; test: Volume of Acidic Compartment (VAC) by FACS, MPS IIIA fibroblasts; type: cell-based, human; conditions: added for 48 h, MPSIIIA GM00879
Experimental: (§3) FIG. 10: Test of rhHSP70 in non-sphingolipidosis. rhHSP70 was added for 48 h to primary fibroblasts from Sandhoff Disease and Mucopolysaccharidosis type IIIA (aka Sanfilippo type IIIA) patients (Coriell Cell Repository ID: Sandhoff: GM11098, MPSIIIA: GM00879). Ctrl=Normal Control fibroblasts. Read-out: Volume of Acidic Compartment (VAC) (Primary cellular pathology), performed by FACS.

NPC−/− mice [3] = test: NPC1 in vivo pilot study: tissue GSLs (fluorescent HPLC)
Experimental: as §1, §2

[4] = system: primary fibroblasts from Sandhoff Disease patients; test: Volume of Acidic Compartment (VAC) by FACS, Sandhoff fibroblasts; type: cell-based, human; conditions: added for 48 h, Sandhoff GM11098
Experimental: as §3

NPC−/− mice [5] = test: NPC1 in vivo pilot study: organ weights; conditions: 10 mg/kg IP three times per week; sacrificed at 7 or 9 weeks old
Experimental: as §1

NPC−/− mice [6] = test: NPC1 in vivo pilot study: tissue cholesterol (Amplex Red Cholesterol Assay)
Experimental: as §1, §2

[7] = Liposome 90° light scattering, BMP; type: binding; conditions: pH 6.0 vs pH 7.4
Source text: (§4) Thus, we investigated the interaction of Hsp70 with palmitoyl-oleoyl-phosphatidylcholine (POPC) large unilamellar vesicles (LUVs) containing various membrane-associated anionic lipids, i.e. palmitoyl-oleoyl-phosphatidylserine (POPS; primarily in plasma membrane), cardiolipin (primarily mitochondrial) and BMP (primarily in late endosomes/lysosomes). Taking into account the increasingly acidic milieu of the endo-lysosomal compartment upon maturation to lysosomes, we compared the protein-lipid interactions in neutral (pH 7.4) and acidic (pH 6.0) conditions. […] As reported earlier for POPS, all negatively charged lipids enhanced the binding of rHsp70 to the liposomes at neutral pH approximately 4-fold irrespective of the charge density on the liposome surface (ranging from −1 to −2).
(§5) The tryptophan fluorescence spectra (RFI) and liposome 90° light scattering (RSI) were analyzed in a HEPES buffer (20 mM HEPES, 0.1 mM EDTA, pH 7.4 or 6.0 as indicated) employing LUVs consisting of indicated lipids essentially as described in the art. For the RFI, LUVs were added in 10 μM aliquots and spectra recorded after a 20 min stabilization period. For the RSI, recombinant proteins were added in 0.12 nmol aliquots.

[8] = system: primary fibroblasts from Mucopolysaccharidosis type IVA patient; test: Lysosomal cross-sectional area, laser confocal microscopy, MPS IVA fibroblasts; type: cell-based, human; conditions: Alexa Fluor 488 labelled, added for 48 h; GM00958
Experimental: FIG. 9: Test of rhHSP70 in non-sphingolipidosis. rhHSP70 labelled with Alexa Fluor 488 (for visualization of uptake) was added for 48 h to primary fibroblasts from Mucopolysaccharidosis type IVA (aka (Morbus) Morquio type IVA) patient (Coriell Cell Repository ID: GM00958). Read-out: lysosomal cross-sectional area (Primary cellular pathology), performed by laser confocal microscopy.

U2OS osteosarcoma cells = test: Endocytic uptake of Alexa Fluor-488-labelled BSA (BSA*); type: cell-based, Human; conditions: 20 μg/mL BSA* for 24 h with 3000 nM rHsp70 vs BSA* alone
Experimental: FIG. 4: Hsp70 increases endocytic uptake of other molecules. Panel A: immortalized mouse embryonic fibroblasts (iMEF), either wildtype (WT) or transgenic for Hsp70 (TG) where incubated with 20 μg/mL Alexa Fluor-488-labelled BSA (BSA*) for 24 h. Endocytic uptake was verified by fluorescence microscopy (not shown). Cells where then harvested and analyzed for uptake of BSA*. […] Panel B: U2OS osteosarcoma cells where incubated with 20 μg/mL BSA* for 24 h either with 3000 nM rHsp70 or without as indicated. Endocytic uptake was verified by fluorescence microscopy (not shown). Cells where then harvested and analyzed for uptake of BSA*.

[9] = Liposome 90° light scattering, POPC liposomes; type: binding; conditions: pH 7.4
Source text: as §4, §5

[10] = Liposome 90° light scattering, POPS; type: binding; conditions: pH 6.0 vs pH 7.4
Source text: as §4, §5

NPC−/− mice [11] = test: NPC1 in vivo pilot study: gait analysis; conditions: 10 mg/kg IP three times per week
Experimental: as §1
Behavioural experiments were performed from 3 weeks of age, as described previously. Briefly, tremor analysis was performed using an automated tremor monitor (San Diego instruments) Gait analysis was performed by painting front and hind paws with non-toxic paint and allowing the mice to walk over Whatman 3M paper. Paw placement was measured to determine how closely their hind paws superimposed their front paws, the length of the stride and the width of their gait.

Substance: rHsp70: recombinant (human) heat shock protein 70; in some tests labelled with Alexa Fluor 488
- sphingosine in brain (NPC−/− mice [1]; 7 week): no significant difference
- sphingosine in brain (NPC−/− mice [1]; 9 week): slight, yet significant (p<0.005, **) increased levels of sphingosine
- Volume of Acidic Compartment (VAC) [2]: effectively reverts the lysosomal primary pathology
- GSLs in spleen and brain (NPC−/− mice [3]; 7 weeks): reductions in spleen and brain, but are not statistically significant
- GSLs in liver (NPC−/− mice [3]; 7 weeks, p<0.05): significant reduction
- GSLs in tissues (NPC−/− mice [3]; 9 weeks): no significant differences
- fall of total GSL levels in the brain (NPC−/− mice [3]; at 9 weeks, compared with five-fold reduction in control mice): less severe
- Volume of Acidic Compartment (VAC) [4]: effectively reverts the lysosomal primary pathology
- organ weights (NPC−/− mice [5]): No differences
- cholesterol in peripheral tissue (NPC−/− mice [6]; 7 week time point, compared to control): significant decreases
- brain cholesterol (NPC−/− mice [6]; 7 week time point, done in triplicate): decrease, although the decrease only occurred in one repeat of the experiment
- cholesterol (NPC−/− mice [6]; 9 week time point): no difference
- binding to BMP at acidic pH as compared to neutral pH [7]: ~20 times
- lysosomal cross-sectional area (primary cellular pathology) [8]: effectively reverts the lysosomal primary pathology
- uptake of BSA* (U2OS osteosarcoma cells): significantly higher uptake of BSA*
- binding (relative change in 90° light scattering) [9]: very weak binding
- binding to POPS upon acidification [10]: only slightly increased
- gait (front:hind paw placement, stride length, gait width) (NPC−/− mice [11]): no difference
